Measured values as given in article PMC11574108, “4-Furanylvinylquinoline derivative as a new scaffold for the design of oxidative stress initiator and glucose transporter inhibitor drugs” (Scientific Reports, 2024).
Several values for one entry are separate records, joined by “and”; a condition that tells them apart may be missing. Equal entries are not always repeated.

Experiments:
HCT 116 p53+/+ = experiment: Monolayer antiproliferative MTS assay; format: cell-based, human; details: 2D monolayer; for IC50: MTS, 72-h incubation; for SI (selectivity index) HCT 116 p53+/+: relative to NHDF
From the text: (§1) The human colon carcinoma cell line HCT 116 with wild-type p53 (p53^+/+) and the human glioblastoma cell line U-251 were obtained from ATCC, while the HCT 116 with a p53 deletion (p53^−/−) was kindly provided by Prof. M. Rusin from the Maria Sklodowska-Curie Memorial Cancer Center and Institute of Oncology in Gliwice, Poland. The human chronic myelogenous leukaemia cell line K562 and the normal human cell dermal fibroblast cell line NHDF were purchased from Sigma-Aldrich and PromoCell, respectively. Both the HCT 116 and U-251 cell lines were cultured in Dulbecco’s modified Eagle’s medium (DMEM) supplemented with 10% inactivated foetal bovine serum (FBS). The DMEM for the NHDF contained 15% non-inactivated FBS. K562 cells were cultured in RPMI medium completed by 10% inactivated FBS. Additionally, the media were supplemented with antibiotics (streptomycin and penicillin – 1% v/v; Sigma-Aldrich). The cell culture was conducted in 75 cm^2 flasks (Nunc) under standard conditions (37 °C, 5% CO2 humidified atmosphere). Furthermore, the cell lines were frequently tested for mycoplasma using the qRT-PCR technique with specific Mycoplasma primers to confirm the lack of contamination.
(§2) The cells were seeded in 96-well plates (Nunc) with 5,000 or 4,000 cells per well for the cancer cells and NHDF, respectively, and incubated under standard conditions at 37 °C overnight. The culture media were then changed for freshly prepared solutions of the tested compounds in various concentrations. After 72-h incubation the antiproliferative assay was carried out as follows: the solutions of the compounds were changed in each well to 100 µL DMEM without phenol red and 20 µL of CellTiter 96 AQueous One Solution-MTS (Promega). The plates were incubated for 1 h at 37 °C, and the absorbance was then measured at 490 nm using a multi-plate reader (Synergy 4, BioTek). The experiment for each sample was repeated at least three times.
(§3) Additionally, the compounds were also tested for their cytotoxicity against normal cells – human dermal fibroblasts (NHDF).

HCT 116 p53-/- = experiment: Monolayer antiproliferative MTS assay; format: cell-based, human; details: 2D monolayer; for IC50: MTS, 72-h incubation; for SI (selectivity index) HCT 116 p53-/-: relative to NHDF
From the text: as §1, §2, §3

NHDF = experiment: Monolayer MTS cytotoxicity against normal cells; format: cell-based; details: normal human dermal fibroblasts, 72-h incubation
From the text: as §1, §2, §3

PANC-1 = experiment: Monolayer antiproliferative MTS assay; format: cell-based, human; details: 2D monolayer
Experimental: as §2, with “times. The results are presented as the half-maximal inhibitory concentration (IC50) values, which were estimated in comparison to untreated cells (control) and calculated using GraphPad Prism v.8.0 (USA).” for “times.”
(§4) However, the antiproliferative activity of derivative 13 with furan a ring was surprising. […] For this purpose, we selected two pancreatic cancer cell lines: AsPC-1, which is characterised by a deletion of the p53 protein[20] and PANC-1, which carries an R273H mutation. This mutation also occurred in the glioblastoma U-251 cell line[22],[23]. An additional non-adherent line that carries the TP53 mutation that results in the absence of p53 is the K562 leukemic cell line[24]. […] Moreover, 13 was selective toward […], as indicated by its SI values (3.35–9.41). Among all of the tested cell lines, the highest activity of the compound was found against the HCT 116 cells with the wild-type p53 protein (0.069 µM). […] The p53 protein also interacts with the metabolic pathways that are associated with glucose transport[25] as well as small molecules. In light of the above-mentioned facts, we also determined the cytotoxicity of the GLUT inhibitor BAY-876, which is based on a quinoline scaffold. […] Furthermore, BAY-876 was also toxic to normal cells.

AsPC-1 = experiment: Monolayer antiproliferative MTS assay; format: cell-based, human; details: 2D monolayer
Experimental: as §2, with “times. The results are presented as the half-maximal inhibitory concentration (IC50) values, which were estimated in comparison to untreated cells (control) and calculated using GraphPad Prism v.8.0 (USA).” for “times.”
as §4

K562 = experiment: Monolayer antiproliferative MTS assay; format: cell-based, human; details: 2D model
From the text: as §1
as §2, with “times. The results are presented as the half-maximal inhibitory concentration (IC50) values, which were estimated in comparison to untreated cells (control) and calculated using GraphPad Prism v.8.0 (USA).” for “times.”
as §4

U-251 = experiment: Monolayer antiproliferative MTS assay; format: cell-based, human; details: 2D monolayer
From the text: as §1
as §2, with “times. The results are presented as the half-maximal inhibitory concentration (IC50) values, which were estimated in comparison to untreated cells (control) and calculated using GraphPad Prism v.8.0 (USA).” for “times.”
as §4

GLUT-1 = experiment: Western blot, GLUT-1 protein level; format: cell-based, human; details: HCT 116 p53+/+, DOX 5 µM, both time points (24 and 48 h)
Experimental: The cells (500,000) were seeded in 35 mm Petri dishes (Nunc) and incubated in a solution of the tested compound (0.5 µM and 1 µM) for 24 h and 48 h. The cells were then dissociated using trypsin, collected in Eppendorf tubes, and centrifuged at 2,000 rpm. Next, cell pellets were resuspended in complete RIPA buffer containing a Halt Protease Inhibitor Cocktail and Halt Phosphatase Inhibitor Cocktail along with 0.5 M EDTA (all reagents from Thermo Fisher Scientific) and lysed on ice for 20 min. Afterward, the lysates were sonicated and centrifuged at 10,000 rpm for 10 min at 4 °C. The obtained supernatants were collected for further analysis. The protein concentration was determined using a Micro BCA™ Protein Assay Kit (Thermo Fisher Scientific) according to the manufacturer’s procedure. Equal amounts of proteins (16 µg) were electrophoresed on SDS-Page gels and transferred onto nitrocellulose membranes. Novex Sharp Pre-Stained Protein Standard (Thermo Fisher Scientific) was used as a colored molecular weight marker. The membranes were blocked in 5% non-fat milk prepared in TPBS (PBS supplemented by 0.1% Tween-20) for 1 h. After blocking, the membranes were cut, and then incubated with specific primary monoclonal antibodies (all purchased from Cell Signaling) overnight at 4 °C. The antibodies for the target proteins (CDK1 Mouse mAb #9116, p53 Mouse mAb #2524, FAS Mouse mAb #8023, GLUT-1 Rabbit mAb #12939, HO-1 Rabbit mAb #5853, p21^Waf1/Cip1 Rabbit mAb #2947, PARP #9542) were diluted 1:1000, while the antibodies for the reference proteins (GAPDH Rabbit mAb #2118, β-actin Mouse mAb #3700, and vinculin Rabbit mAb #13901) were diluted 1:2000. The following day, the membranes were washed in TPBS and incubated with horseradish peroxidase (HRP)-conjugated secondary antibodies (Anti-rabbit IgG, HRP-linked Antibody #7074 or Anti-mouse IgG, HRP-linked Antibody #7076) for 1 h at room temperature. The membranes were then washed in TPBS and incubated with a SuperSignal™ West Pico Chemiluminescent Substrate (Thermo Fisher Scientific). Finally, the membranes were visualized using a ChemiDoc™ XRS + System (Bio-Rad). The experiments were carried out four to five times. The densitometric analysis was performed using ImageJ software (Wayne Rasband, National Institutes of Health, USA).
We, therefore, decided to test the effect of the tested compound on the level of the main glucose transporter, GLUT-1. […] The validity of the described conclusions was confirmed by the results that were obtained for doxorubicin. in which p53 activation occurred at both tested time points with a concomitant decrease in the GLUT-1 levels. […] The results that were obtained from the measurements of the expression of this protein were so interesting, and at the same time, inconclusive that we additionally decided to determine the effect of the tested derivative 13 on the expression of the genes encoding selected glucose transporters.

| SMILES | melting point | IC50 (HCT 116 p53+/+; Homo sapiens, HCT-116, 72 h) | IC50 (HCT 116 p53-/-; Homo sapiens, HCT-116, 72 h) | SI (selectivity index) HCT 116 p53+/+ (HCT 116 p53+/+) | SI (selectivity index) HCT 116 p53-/- (HCT 116 p53-/-) | IC50 (NHDF; NHDF) | other results |
| --- | --- | --- | --- | --- | --- | --- | --- |
| O=[N+]([O-])c1ccc(/C=C/c2ccc3cccc(O)c3n2)o1 [Compound 3] | 189 to 191 °C | – | – | – | – | – | – |
| O=[N+]([O-])c1cccc(/C=C/c2ccnc3ccccc23)c1 [Compound 10] | 111 to 112 °C | > 25000 nM | > 25000 nM | – | – | – | – |
| CC(=O)Oc1c(Cl)cc(Cl)c2ccc(/C=C/c3ccc([N+](=O)[O-])o3)nc12 [Compound 8] | 220 to 222 °C | 2080 ± 400 nM | 1120 ± 510 nM | 5.46 | 10.13 | 11400 ± 2530 nM | – |
| O=[N+]([O-])c1ccc(/C=C/c2ccc3c(Cl)cc(Cl)c(O)c3n2)o1 [Compound 7] | 270 to 271 °C | 3460 ± 340 nM | 1330 ± 250 nM | > 7.23 | > 18.80 | > 25000 nM | – |
| O=[N+]([O-])c1ccc(/C=C/c2ccnc3ccccc23)cc1 [Compound 11] | 228 to 229 °C | > 25000 nM | > 25000 nM | – | – | – | – |
| COc1cccc2c1C(=O)c1c(O)c3c(c(O)c1C2=O)C[C@@](O)(C(=O)CO)C[C@@H]3O[C@H]1C[C@H](N)[C@H](O)[C@H](C)O1 [Doxorubicin, reference compound] | – | – | – | 0.41 | 0.37 | 140 ± 30 nM | SI (selectivity index) PANC-1 (PANC-1; relative to NHDF): 0.19; IC50 (PANC-1; Homo sapiens, PANC-1, MTS, 72-h incubation): 730 ± 90 nM; SI (selectivity index) AsPC-1 (AsPC-1; relative to NHDF): 0.16; IC50 (AsPC-1; Homo sapiens, ASPC1, MTS, 72-h incubation): 860 ± 130 nM; IC50 (HCT 116 p53+/+; Homo sapiens, HCT-116): 340 ± 40 nM; IC50 (HCT 116 p53-/-; Homo sapiens, HCT-116): 380 ± 30 nM; SI (selectivity index) K562 (K562; relative to NHDF): 7.00; IC50 (K562; Homo sapiens, K562, MTS, 72-h incubation): 20 ± 10 nM; SI (selectivity index) U-251 (U-251; relative to NHDF): 2.80; IC50 (U-251; Homo sapiens, U-251, MTS, 72-h incubation): 50 ± 20 nM; GLUT-1 protein level vs control (GLUT-1): decrease |
| O=[N+]([O-])c1ccc(/C=C/c2cc(O)c3ccccc3n2)o1 [Compound 5] | 306 to 308 °C | 300 ± 100 nM | 300 ± 70 nM | 1.50 | 1.50 | 450 ± 70 nM | – |
| O=[N+]([O-])c1ccc(/C=C/c2ccnc3ccccc23)c([N+](=O)[O-])c1 [Compound 12] | 200 to 201 °C | – | – | – | – | – | IC50 (HCT 116 p53+/+; Homo sapiens, HCT-116): > 25000 nM; IC50 (HCT 116 p53-/-; Homo sapiens, HCT-116): > 25000 nM |
| Cc1ccc(/C=C/c2ccc3cccc(O)c3n2)o1 [Compound 2] | – | – | – | – | – | – | IC50 (HCT 116 p53+/+): > 25000 nM; IC50 (HCT 116 p53-/-): > 25000 nM |
| Oc1cccc2ccc(/C=C/c3ccco3)nc12 [Compound 1] | – | – | – | – | – | – | IC50 (HCT 116 p53+/+): > 25000 nM; IC50 (HCT 116 p53-/-): > 25000 nM |
| CC(=O)Oc1cccc2ccc(/C=C/c3ccc([N+](=O)[O-])o3)nc12 [Compound 4] | 173 to 175 °C | 200 ± 30 nM | 240 ± 50 nM | 3.35 | 2.79 | 670 ± 80 nM | – |
| O=[N+]([O-])c1ccccc1/C=C/c1ccnc2ccccc12 [Compound 9] | 161 to 163 °C | > 25000 nM | > 25000 nM | – | – | – | – |
| Oc1c(Cl)cc(Cl)c2ccc(C=Cc3ccco3)nc12 [Compound 6] | – | – | – | – | – | – | IC50 (HCT 116 p53+/+): 4000 nM and 4010 nM; IC50 (HCT 116 p53-/-): 2700 nM and 2720 nM; IC50 (NHDF): > 25000 nM |
